Experimental findings from patent US11555012B2 (Nimbus Artemis, Inc., priority 2018, dated 2023) are described below.

pIC50: −log10 of the molar value. Read-outs that look alike come from different tables or passages of the source.

For the experiment, the target named is ACL (Homo sapiens (Human), UniProt P53396). Description: ADP-Glo Assay.
Where [1] appears, read: read-out: ACL-ADP-Glo (IC50), 3 nM ACL, 15 μM ATP, 3 μM CoA, 300 μM Citrate.

ACL, sequence (P53396 other isoform, or with tags, fused parts or gaps isoform P53396-2): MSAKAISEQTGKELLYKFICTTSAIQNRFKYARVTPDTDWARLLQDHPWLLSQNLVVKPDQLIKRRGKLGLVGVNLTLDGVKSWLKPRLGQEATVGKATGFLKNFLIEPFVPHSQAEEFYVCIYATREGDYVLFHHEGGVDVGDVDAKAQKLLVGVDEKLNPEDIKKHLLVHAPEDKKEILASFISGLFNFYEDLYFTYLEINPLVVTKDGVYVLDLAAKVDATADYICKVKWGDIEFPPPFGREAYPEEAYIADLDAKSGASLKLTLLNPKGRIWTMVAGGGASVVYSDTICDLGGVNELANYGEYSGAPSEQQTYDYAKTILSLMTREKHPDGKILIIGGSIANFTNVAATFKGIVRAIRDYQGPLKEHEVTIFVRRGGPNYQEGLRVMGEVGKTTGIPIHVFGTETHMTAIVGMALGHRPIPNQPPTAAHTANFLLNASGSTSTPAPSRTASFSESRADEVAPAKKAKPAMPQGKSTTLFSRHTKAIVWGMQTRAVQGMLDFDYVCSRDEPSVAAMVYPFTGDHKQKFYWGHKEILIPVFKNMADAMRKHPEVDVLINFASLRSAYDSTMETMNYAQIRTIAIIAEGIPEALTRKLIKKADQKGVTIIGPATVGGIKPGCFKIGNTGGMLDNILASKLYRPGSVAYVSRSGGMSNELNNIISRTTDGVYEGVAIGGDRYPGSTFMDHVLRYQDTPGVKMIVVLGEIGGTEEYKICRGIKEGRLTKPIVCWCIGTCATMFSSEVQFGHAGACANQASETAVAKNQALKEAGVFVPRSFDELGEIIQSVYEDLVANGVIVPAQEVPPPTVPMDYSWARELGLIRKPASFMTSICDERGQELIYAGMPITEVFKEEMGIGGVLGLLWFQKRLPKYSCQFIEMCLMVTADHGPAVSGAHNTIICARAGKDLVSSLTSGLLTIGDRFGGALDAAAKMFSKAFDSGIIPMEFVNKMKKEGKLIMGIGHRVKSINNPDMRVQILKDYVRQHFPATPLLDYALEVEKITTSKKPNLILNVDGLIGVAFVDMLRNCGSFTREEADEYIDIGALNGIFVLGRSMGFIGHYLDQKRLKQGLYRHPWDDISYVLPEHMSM

For `COc1cccc(CCNS(=O)(=O)c2cc(Cl)cc(Cl)c2O)c1` [I-188], the pIC50 – broadly, −log10 of the IC50, conventionally taken in molar units – is 4.70 to 6.30.

Take `O=S(=O)(Nc1cnc(-c2ccccc2)s1)c1cc(Cl)cc(Cl)c1O` [I-189]: the pIC50 is 4.70 to 6.30.

`O=S(=O)(Nc1cc(-c2ccccc2)c(F)cc1F)c1cccc(Cl)c1Cl` [I-190, 2,3-dichloro-N-[4,6-difluoro-[1,1-biphenyl]-3-yl]benzene-1-sulfonamide] showed a pIC50 of 4.70 to 6.30.

`COC(=O)c1cccc(S(=O)(=O)Nc2cc(-c3ccccc3)c(F)cc2F)c1` [I-191, methyl 3-([4,6-difluoro-[1,1-biphenyl]-3-yl]sulfamoyl)benzoate] showed a negative logarithm of the IC50 (pIC50) of 4.70 to 6.30.

As for `O=S(=O)(Nc1cc(-c2ccccc2)c(F)cc1F)c1cccc(Cl)c1F` [I-195, 3-chloro-N-(4,6-difluoro-[1,1′-biphenyl]-3-yl)-2-fluorobenzenesulfonamide], the pIC50 was 4.70 to 6.30.

`N#Cc1cc(S(=O)(=O)Nc2cc(-c3ccccc3)c(F)cc2F)ccc1Cl` [I-196, 4-chloro-3-cyano-N-(4,6-difluoro-[1,1′-biphenyl]-3-yl) benzenesulfonamide] had a pIC50 of 4.70 to 6.30.

In turn, `O=C(O)COc1c(Cl)cc(C(=O)N2CCC2)cc1S(=O)(=O)Nc1cc(-c2ccccc2)c(F)cc1F` [I-199, 2-[4-(azetidine-1-carbonyl)-2-chloro-6-([4,6-difluoro-[1,1-biphenyl]-3-yl]sulfamoyl)phenoxy]acetic Acid] showed a pIC50 of 4.70 to 6.30.

The compound `O=S(=O)(Nc1cc(-c2ccccc2)c(F)cc1F)c1cc(Cl)cc(C(F)(F)F)c1` [I-204, 3-chloro-N-[4,6-difluoro-[1,1-biphenyl]-3-yl]-5-(trifluoromethyl)benzene-1-sulfonamide] gave a pIC50 of 4.70 to 6.30.

The compound `O=C(c1cc(Cl)c(O)c(SCc2cc(-c3ccccc3)c(F)cc2F)c1)N1CCCC1` [I-205, (3-chloro-5-(((4,6-difluoro-[1,1′-biphenyl]-3-yl)methyl)thio)-4-hydroxyphenyl)(pyrrolidin-1-yl)methanone] showed a negative logarithm of the IC50 (pIC50) of 4.70 to 6.30.

`O=S(=O)(Nc1cc(-c2ccccc2)ccc1F)c1cc(Cl)cc(Cl)c1F` [I-207, 3,5-dichloro-2-fluoro-N-[4-fluoro-[1,1-biphenyl]-3-yl]benzene-1-sulfonamide] gave a pIC50 of 4.70 to 6.30.

The compound `CN(C)C(=O)Oc1c(Cl)cc(C(=O)N2CCC2)cc1S(=O)(=O)Nc1cc(-c2ccccc2)c(F)cc1F` [I-209, 4-(azetidine-1-carbonyl)-2-chloro-6-([4,6-difluoro-[1,1-biphenyl]-3-yl]sulfamoyl)phenyl N,N-dimethylcarbamate] gave a negative logarithm of the IC50 (pIC50) of 4.70 to 6.30.

The compound `CC(C)(C)C(=O)Oc1c(Cl)cc(C(=O)N2CCC2)cc1S(=O)(=O)Nc1cc(-c2ccccc2)c(F)cc1F` [I-210, 4-(azetidine-1-carbonyl)-2-chloro-6-(N-(4,6-difluoro-[1,1′-biphenyl]-3-yl)sulfamoyl)phenyl Pivalate] showed a negative logarithm of the IC50 (pIC50) of 4.70 to 6.30.

`CC(C)(C)OC(=O)COc1ccc(-c2ccccc2)cc1NS(=O)(=O)c1cc(Cl)cc(Cl)c1O` [I-214, tert-butyl 2-[[3-(3,5-dichloro-2-hydroxybenzenesulfonamido)-[1,1-biphenyl]-4-yl]oxy]acetate] showed a pIC50 of 4.70 to 6.30.

For `O=C(c1cc(Cl)c(O)c(NS(=O)(=O)c2cc(-c3ccccc3)ccc2F)c1)N1CCC1` [I-215, N-[5-(azetidine-1-carbonyl)-3-chloro-2-hydroxyphenyl]-4-fluoro-[1,1-biphenyl]-3-sulfonamide], the negative-log IC50 (pIC50) is 4.70 to 6.30.

In the case of `O=C(Nc1cc(C(=O)N2CCC2)cc(Cl)c1O)c1cc(-c2ccccc2)ccc1F` [I-216, N-(5-(azetidine-1-carbonyl)-3-chloro-2-hydroxyphenyl)-4-fluoro-[1,1′-biphenyl]-3-carboxamide], the pIC50 was 4.70 to 6.30.

`O=C(Oc1c(Cl)cc(C(=O)N2CCC2)cc1S(=O)(=O)N(C(=O)C1CC1)c1cc(-c2ccccc2)c(F)cc1F)C1CC1` [I-217, 4-(azetidine-1-carbonyl)-2-chloro-6-[(1-cyclopropyl-N-[4,6-difluoro-[1,1-biphenyl]-3-yl]formamido)sulfonyl]phenylcyclopropanecarboxylate] had a negative logarithm of the IC50 (pIC50) of 4.70 to 6.30.

For `N#Cc1cc(Cl)cc(S(=O)(=O)Nc2cc(-c3ccccc3)ccc2O)c1` [I-218, 3-chloro-5-cyano-N-[4-hydroxy-[1,1-biphenyl]-3-yl]benzene-1-sulfonamide], the pIC50 is 4.70 to 6.30.

With `O=S(=O)(Nc1ccc(F)cc1F)c1cc(Cl)cc(Cl)c1O` [I-219, 3,5-dichloro-N-(2,4-difluorophenyl)-2-hydroxybenzene-1-sulfonamide], the pIC50 was 4.70 to 6.30.

In the case of `O=S(=O)(Nc1cc(-c2ccccc2)ccc1F)c1cc(Cl)cc2ccoc12` [I-223, 5-chloro-N-[4-fluoro-[1,1-biphenyl]-3-yl]-1-benzofuran-7-sulfonamide], the pIC50 is 4.70 to 6.30.

In turn, `O=S(=O)(Nc1cc(-c2ccccc2)ccc1O)c1cc(Cl)cc(Cl)c1` [I-224, 3,5-dichloro-N-(4-hydroxy-[1,1′-biphenyl]-3-yl)benzenesulfonamide] had a pIC50 of 4.70 to 6.30.

For the compound `O=C(O)c1ccc(-c2ccccc2)cc1NS(=O)(=O)c1ccccc1` [I-225, 3-(phenylsulfonamido)-[1,1′-biphenyl]-4-carboxylic Acid], the negative-log IC50 (pIC50) was 4.70 to 6.30.

Take `O=C(O)c1ccc(-c2ccccc2)cc1NS(=O)(=O)c1cc(Cl)cc(C(=O)N2CCC2)c1` [I-227, 3-((3-(azetidine-1-carbonyl)-5-chlorophenyl)sulfonamido)-[1,1′-biphenyl]-4-carboxylic Acid]: the pIC50 was 4.70 to 6.30.

Regarding `O=C(O)Cc1ccc(-c2ccccc2)cc1NS(=O)(=O)c1cc(Cl)cc(Cl)c1` [I-228, 2-(3-((3,5-dichlorophenyl)sulfonamido)-[1,1′-biphenyl]-4-yl)acetic Acid], under setting [1], the pIC50 is 4.70 to 6.30.

For `O=S(=O)(Nc1cc(-c2ccccc2)c(F)cc1F)c1ccccc1O` [I-230, N-[4,6-difluoro-[1,1-biphenyl]-3-yl]-2-hydroxybenzene-1-sulfonamide], the pIC50 is 4.70 to 6.30.

For `CN(C)C(=O)c1cc(Cl)c(O)c(S(=O)(=O)Nc2cc(C3CC3)c(F)cc2F)c1` [I-231, 3-chloro-5-(N-(5-cyclopropyl-2,4-difluorophenyl)sulfamoyl)-4-hydroxy-N,N-dimethylbenzamide], the negative-log IC50 (pIC50) is 4.70 to 6.30.

On to `O=C(O)c1ccc(-c2ccccc2)cc1NS(=O)(=O)c1cc(Cl)cc(-c2nccs2)c1` [I-234, 3-((3-chloro-5-(thiazol-2-yl)phenyl)sulfonamido)-[1,1′-biphenyl]-4-carboxylic Acid], for which the pIC50 was 4.70 to 6.30.

Take `O=C(c1cc(Cl)c(O)c(S(=O)(=O)Nc2cc(-c3ccccc3)ccn2)c1)N1CCC1` [I-237]: the negative-log IC50 (pIC50) under setting [1] was 4.70 to 6.30.

With `O=C(O)COc1ccc(-c2ccccc2)cc1NS(=O)(=O)c1cc(F)cc(Cl)c1` [I-238, 2-((3-((3-chloro-5-fluorophenyl)sulfonamido)-[1,1′-biphenyl]-4-yl)oxy)acetic Acid], the pIC50 is 4.70 to 6.30.

As for `O=C(O)COc1ccc(-c2ccccc2)cc1NS(=O)(=O)c1cc(Cl)cc(Cl)c1` [I-244, 2-[[3-(3,5-dichlorobenzenesulfonamido)-[1,1-biphenyl]-4-yl]oxy]acetic Acid], the negative-log IC50 (pIC50) was 4.70 to 6.30.

`NC(=O)Cc1ccc(-c2ccccc2)cc1NS(=O)(=O)c1cc(Cl)cc(Cl)c1` [I-245, 2-(3-((3,5-dichlorophenyl)sulfonamido)-[1,1′-biphenyl]-4-yl)acetamide]: the pIC50 was 4.70 to 6.30.

`O=S(=O)(Nc1cc(-c2ccccc2)c(F)cc1F)c1cc(Cl)cc(Br)c1` [I-246, 3-bromo-5-chloro-N-(4,6-difluoro-[1,1′-biphenyl]-3-yl)benzenesulfonamide] gave a negative-log IC50 (pIC50) of 4.70 to 6.30.

`O=C(O)c1ccc(-c2ccccc2)cc1NS(=O)(=O)c1cncc(Cl)c1` [I-247, 3-((5-chloropyridine)-3-sulfonamido)-[1,1′-biphenyl]-4-carboxylic Acid] showed a negative logarithm of the IC50 (pIC50) of 4.70 to 6.30.

`COC(=O)c1ncccc1S(=O)(=O)Nc1cc(-c2ccccc2)ccc1F` [I-250] had a negative logarithm of the IC50 (pIC50) of 4.70 to 6.30.

`N#Cc1cc(S(=O)(=O)Nc2cc(-c3ccccc3)ccc2F)ccc1Cl` [I-251] gave a pIC50 of 4.70 to 6.30.

Consider `O=S(=O)(Nc1cc(-c2ccccc2)ccc1F)c1ccc(Cl)c(-c2nnn[nH]2)c1` [I-252], for which the negative-log IC50 (pIC50) is 4.70 to 6.30.

`O=c1[nH]c2cc(F)c(S(=O)(=O)Nc3cc(-c4ccccc4)ccc3F)cc2o1` [I-253] had a negative logarithm of the IC50 (pIC50) of 4.70 to 6.30.

Regarding `CCS(=O)(=O)Nc1cc(OC)ccc1S(=O)(=O)Nc1cc(-c2ccccc2)ccc1F` [I-254], the negative-log IC50 (pIC50) is 4.70 to 6.30.

Compound `O=C1COc2cc(S(=O)(=O)Nc3cc(-c4ccccc4)ccc3F)c(Cl)cc2N1` [I-255] gave a negative logarithm of the IC50 (pIC50) of 4.70 to 6.30.

The compound `O=C(O)c1cc(Cl)c(Cl)c(S(=O)(=O)Nc2cc(-c3ccccc3)ccc2F)c1` [I-256] had a negative-log IC50 (pIC50) of 4.70 to 6.30.

Regarding `O=C(O)c1ccc(-c2ccccc2)cc1NS(=O)(=O)Cc1ccccc1` [I-257], the pIC50 was 4.70 to 6.30.

The compound `O=C(O)c1ccc(-c2ccccc2)cc1NS(=O)(=O)c1ccc2[nH]c(=O)[nH]c2c1` [I-258] had a pIC50 of 4.70 to 6.30.

The compound `O=C(O)c1ccc(-c2ccccc2)cc1NS(=O)(=O)CCc1ccccc1` [I-259] gave a pIC50 of 4.70 to 6.30.

For the compound `COc1ccc(-c2ccccc2)cc1NS(=O)(=O)c1cc(Cl)cc(Cl)c1NS(C)(=O)=O` [I-263, 3,5-dichloro-2-methanesulfonamido-N-[4-methoxy-[1,1-biphenyl]-3-yl]benzene-1-sulfonamide], the pIC50 was 4.70 to 6.30.

`CC(C)(C)OC(=O)COc1ccc(-c2ccccc2)cc1NS(=O)(=O)c1cc(C(F)(F)F)cc(Cl)c1O` [I-265, tert-butyl 2-([3-[3-chloro-2-hydroxy-5-(trifluoromethyl)benzenesulfonamido]-[1,1-biphenyl]-4-yl]oxy)acetate] gave a negative logarithm of the IC50 (pIC50) of 4.70 to 6.30.

The compound `O=C(O)c1ccc(-c2ccccc2)cc1NCc1cc(Cl)cc(Cl)c1` [I-267, 3-((3,5-dichlorobenzyl)amino)-[1,1′-biphenyl]-4-carboxylic Acid] gave a negative-log IC50 (pIC50) of 4.70 to 6.30.

For the compound `O=C(c1cc(Cl)c(O)c(S(=O)(=O)Nc2ccccc2F)c1)N1CCC1` [I-268, 5-(azetidine-1-carbonyl)-3-chloro-N-(2-fluorophenyl)-2-hydroxybenzene-1-sulfonamide], the pIC50 is 4.70 to 6.30.
